One experiment has as its system THP-1 cells. The experiment in a line: Intramacrophage Leishmania donovani assay, cytotoxicity readout (THP-1 cell count). It counts as cell-based. To be noted: 72 h incubation with compound; for EC50: Homo sapiens, THP-1, 72 h, read-out: pEC50 value against THP-1 cells (converted). How it is done: (§1) Intra macrophage Leishmania donovani assay
(§2) The intramacrophage Leishmania assay was performed exactly as described in de Rycker et al (Antimicrob Agents Chemother. 2013 July; 57(7):2913-22. doi: 10.1128/AAC.02398-12. Epub 2013 Apr. 9. Comparison of a high-throughput high-content intracellular Leishmania donovani assay with an axenic amastigote assay. De Rycker M, Hallyburton I, Thomas J, Campbell L, Wyllie S, Joshi D, Cameron S, Gilbert I H, Wyatt P G, Frearson J A, Fairlamb A H, Gray D W.). Briefly, 1 μl of compound was pre-dispensed into 384 well sterile intermediary plates. For single point screening, amphotericin B was added to all wells of column 24 as a positive control (final concentration 2 μM) and DMSO to column 23. For potency determinations, ten-point, one in three dilution curves were created with the highest concentration being 50 μM and on each plate a control curve of amphotericin B was included. Controls were as follows: columns 11 and 12: DMSO, columns 23 and 24: amphotericin B (final concentration 2 μM). To the intermediary plates, 100 μl of THP-1 media was added and plates were shaken for >5 min to ensure complete mixing. THP-1 cells (8,000 per well, 50 μl) were plated into black clear-bottom 384 well plates (Corning) in presence of 10 nM PMA. After 20 min at RT, the plates were incubated at 37° C. under 5% CO2 in a humidified incubator for 75 h. The cells were then washed with 450 μl sterile phosphate buffered saline (PBS) supplemented with 1 mM CaCl2, 0.5 mM MgCl2, 0.1% (w/v) bovine serum albumin (PBS-A) and amastigotes were added to all wells at a multiplicity of infection of 5 (40,000 amastigotes per well). After 40 min at RT, plates were returned to the incubator. Amastigotes were incubated in the presence of macrophages for 16 h. […] For each well, i) THP-1 cell count (cytotoxicity readout) and ii) average number of amastigotes per cell (potency readout) were calculated, both in terms of pEC50 values.

Experiment [1] concerns Leishmania donovani amastigotes. The experiment in a line: Intramacrophage Leishmania donovani assay, potency readout (average number of amastigotes per cell). It counts as cell-based. The following applies: THP-1, 72 h, amastigotes in PMA-differentiated THP-1 macrophages, 72 h incubation with compound, read-out: pEC50 value against amastigotes (converted). How it is done: as §1
as §2, with “mixing.” for “mixing. THP-1 cells (8,000 per well, 50 μl) were plated into black clear-bottom 384 well plates (Corning) in presence of 10 nM PMA. After 20 min at RT, the plates were incubated at 37° C. under 5% CO2 in a humidified incubator for 75 h. The cells were then washed with 450 μl sterile phosphate buffered saline (PBS) supplemented with 1 mM CaCl2, 0.5 mM MgCl2, 0.1% (w/v) bovine serum albumin (PBS-A) and amastigotes were added to all wells at a multiplicity of infection of 5 (40,000 amastigotes per well). After 40 min at RT, plates were returned to the incubator. Amastigotes were incubated in the presence of macrophages for 16 h.”

Bounds are passed on as bounds.

Regarding `C[C@H]1CN(c2n[nH]c3nc(NC4CCC(NS(=O)(=O)CCC(F)(F)F)CC4)ncc23)CCO1` (single isomer, unassigned) [Formula (I)], in the experiment on THP-1 cells, the “pEC50 value against THP-1 cells” value is 4.3 and the EC50 is at least 39.8 µM.
As to `C[C@@H]1CN(c2n[nH]c3nc(NC4CCC(NS(=O)(=O)CCC(F)(F)F)CC4)ncc23)CCO1` (single isomer, unassigned) [opposite enantiomer], the figures for the EC50 (in experiment [1]; in the experiment with THP-1 cells) were at most 5.01 µM and at least 39.8 µM, respectively.

These data come from patent US10253028B2, “Pyrazolo[3,4-D]pyrimidin derivative and its use for the treatment of leishmaniasis” (GlaxoSmithKline Intellectual Property Development Limited, priority 2015, dated 2019).
